Earlier results in patent publication US20080027034A1, “Ciclesonide and Syk Inhibitor Combination and Method of Use Thereof” (priority 2004, published 2008).

Legend:
[1] = compared with budesonide
[2] = not given; remark: listed apart in the source

CC(C)C(=O)OCC(=O)[C@@]12O[C@H](C3CCCCC3)O[C@@H]1C[C@H]1[C@@H]3CCC4=CC(=O)C=C[C@]4(C)[C@H]3[C@@H](O)C[C@@]12C [Ciclesonide, [11β,16α(R)]-16,17-[(Cyclohexylmethylen)bis(oxy)]-11-hydroxy-21-(2-methyl-1-oxoprop-oxy)pregna-1,4-dien-3,20-dione]
anti-inflammatory activity relative to budesonide [1]: higher
systemic activity relative to budesonide (compared with budesonide): three times lower
systemic activity (in vivo): low
metabolism by liver oxidases ([2]; liver oxidases): very high
concentration of the drug in the lungs ([2]; lungs): high
absorption after oral administration ([2]; oral administration): only moderately absorbed
plasma half-life ([2]; plasma): low
